Reference: article PMC9499463, “Potent Chlorambucil-Platinum(IV) Prodrugs” (International Journal of Molecular Sciences, 2022)
Values joined by “and” are separate entries in the source; they are usually repeats but may differ in a detail not shown here. Identical values can stand only once. Like-named read-outs stand apart in the source and are kept apart here.

What was measured:
[1] = system: MCF-7 breast; conditions: MCF-7 cell line; read-out: GI50 MCF-7 of prodrug designed by Ma et al.; cited from earlier work
[2] = system: SJ-G2 glioblastoma; experiment: MTT growth inhibition assay, 72 h; type: cell-based, human
[3] = system: A2780 ovarian; experiment: MTT growth inhibition assay, 72 h; type: cell-based, human
[4] = system: U87 glioblastoma; experiment: MTT growth inhibition assay, 72 h; type: cell-based, human
[5] = system: HT29 colon; experiment: MTT growth inhibition assay, 72 h; type: cell-based, human; conditions: for GI50: MTT, 72 h
[6] = system: MCF-7 breast; experiment: MTT growth inhibition assay, 72 h; type: cell-based, human; conditions: MTT, 72 h
[7] = system: MIA pancreas; experiment: MTT growth inhibition assay, 72 h; type: cell-based, human; conditions: for fold more active than CLB: MIA pancreas cell line; for GI50: MTT, 72 h
[8] = system: panel of cell lines; experiment: MTT growth inhibition assay, 72 h, over the cell line panel; type: cell-based, human
[9] = system: H460 lung; experiment: MTT growth inhibition assay, 72 h; type: cell-based, human
[10] = system: ADDP ovarian (cisplatin-resistant A2780 clone); experiment: MTT growth inhibition assay, 72 h; type: cell-based, human; conditions: for GI50: MTT, 72 h; for fold more active than cisplatin: ADDP ovarian cell line
[11] = system: A431 skin; experiment: MTT growth inhibition assay, 72 h; type: cell-based, human
[12] = system: Du145 prostate; experiment: MTT growth inhibition assay, 72 h; type: cell-based, human; conditions: for GI50: MTT, 72 h
[13] = system: BE2-C neuroblastoma; experiment: MTT growth inhibition assay, 72 h; type: cell-based, human
[14] = system: HT29 colon cells; experiment: ROS detection assay (DCFH-DA fluorescence); type: cell-based, human; conditions: compounds at GI50 concentration, TBHP and NAC 20 μM
Procedure: HT29 colon cells were stained by DCFH-DA and then treated with the compounds at each specific GI50 concentration. Upon ROS production, the DCFH-DA produced […], a fluorescent product. The measured fluorescence was, therefore, proportional to the produced ROS. […] 56CLB at 24 h reported 395 RFU, 437 RFU at 48 h, and 558 RFU at 72 h (Table 6, Figure 14 and Figure S42), respectively, showing a significant production of ROS in comparison to control cells. 5CLB at 24 h produced 337 RFU, 324 RFU at 48 h, and 376 RFU at 72 h (Table 6, Figure 14 and Figure S42), respectively.
To investigate for the presence of ROS in treated cells, DCFDA/H2DCFDA-cellular ROS Assay Kit (Abcam, Cambridge, MA, USA) was used, as described. A total of 25,000 cells/mL of HT29 cells in DMEM were seeded in 96-well plates. Cells were washed with 1X kit buffer, then stained with 25 μM 2’,7’-dichlorofluorescein diacetate (DCFH-DA) and incubated for 45 min. DCFH-DA was then removed, and cells were then re-washed with 1X kit buffer, after which phenol red free media was added. Cells were then treated with GI50 drug concentration for each complex. The plates were directly scanned to measure fluorescence (relative fluorescence units (RFU)) at different time points using the Glo-Max®-Multimode microplate reader (Promega Corporation, Alexandra, VIC, Australia) at an excitation/emission of 485/535 nm. To generate the positive control (20 μM tert-butyl hydroperoxide (TBHP)), cells were washed with 1X kit buffer, and stained with DCFDA (25 μM) for 45 min. DCFDA was then removed and TBHP was added in phenol red free media. The plate was scanned to measure the RFU at different time points as mentioned above. The same method applies for the negative control treated with 20 μM N-acetylcysteine (NAC).

[15] = system: non-tumor-derived MCF10A breast line; experiment: MTT growth inhibition assay, 72 h; type: cell-based, human
[16] = Lipophilicity by HPLC (log kw); type: physicochemical; conditions: chromatographic lipophilicity index, extrapolated to 100% d.i.H2O
Description: For lipophilicity measurements, HPLC was utilized instead of the traditional shake-flask method, as described. A few studies have also reported the important and effective use of HPLC to measure the lipophilicity of compounds [66, 67]. Each complex was eluted under several isocratic ratios. A standard curve was then generated to calculate the log value of the capacity factor (log k) according to eqn (1). Following eqn (2), the percentage of organic solvent (CH3CN) in the mobile phase from each isocratic run was plotted against […] (Figure S34). Since log kw is the chromatographic lipophilicity index or measure of lipophilicity of the complex, a higher value corresponds to greater lipophilicity. Since PCLB, 5CLB, and 56CLB are structurally related, there were no significant variations in lipophilicity noted based on the calculated log kw values (Table 4). It is evident that PCLB is the least lipophilic of the group, with a calculated log kw value of 1.80, which is likely due to the absence of methyl groups in its phenanthroline system. 5CLB and 56CLB were the most lipophilic of the group with calculated log kw values of 1.90 and 1.87, respectively, and this is due to the presence of methyl substituents in their phenanthroline systems. […] Additionally, the chromatographic lipophilicity index of CLB was also measured using the abovementioned method, with a calculated log kw of 1.88, which is within the range observed for PCLB, 5CLB, and 56CLB. However, CLB was approximately 1-fold more lipophilic than PCLB. […] The order of increasing lipophilicity is […].
For lipophilicity measurements, analytical HPLC was utilized. Elution profiles were acquired on an Agilent Technologies 1260 Infinity instrument equipped with a Phenomenex Onyx^TM Monolithic C18-reverse phase column (100 × 4.6 mm, 5 µm pore size). The mobile phase consisted of solvents, A (0.06% TFA in d.i.H2O) and B (0.06% TFA in CH3CN/d.i.H2O (90:10)). Potassium iodide was used as an external dead volume marker to determine the dead time of the column. Retention times (TR) were measured at varying isocratic ratios ranging from 42% to 48% of solvent B at 1 mL/min. An injection volume of 10 µL was utilized. Capacity factors were determined according to Equation (1):(1) k=(TR−T0)/T0, where k is the capacity factor, TR is the retention time of the analyte, and T0 represents the dead time. A minimum of four different mobile compositions were used for each complex to calculate k. A linear plot was generated of log k against the concentration of CH3CN in the mobile phase to determine the value of log kw expressed by Equation (2):(2) logk=Sφ+logkw, where S is the slope, φ is the concentration of the CH3CN in the mobile phase and log kw represents the capacity factor of the complex in 100% d.i.H2O. […]

[17] = average over all cell lines tested, read-out: Average GI50 Values

SMILES	GI50 [2]	GI50 [3]	GI50 [4]	GI50 [5]	GI50 [6]	fold more active than CLB [7]	GI50 [7]	GI50 [8, 17]	GI50 [9]	GI50 [10]	GI50 [11]	GI50 [12]	GI50 [13]	ROS Production ([14]; 24 h)	ROS Production ([14]; 48 h)	ROS Production ([14]; 72 h)	GI50 [15]	fold more active than cisplatin [10]	other results
N.N.O=C([O-])CCCc1ccc(N(CCCl)CCCl)cc1.O=C([O-])CCCc1ccc(N(CCCl)CCCl)cc1.[Cl-].[Cl-].[Pt+4]																			GI50 [1]: 2190 ± 0.02 nM
O=C1[O][Pt]2([NH][C@@H]3CCCC[C@H]3[NH]2)[O]C1=O (relative stereo) [Oxaliplatin, trans-L-(1R,2R-diaminocyclohexane) oxalatoplatinum(II), reference compound]	3000 ± 1.2 nM	160 ± 0.1 nM	1800 ± 0.2 nM	900 ± 0.2 nM	500 ± 0.1 nM	44 fold	900 ± 0.2 nM	1463 ± 0.32 nM	1600 ± 0.1 nM	800 ± 0.1 nM	4100 ± 0.5 nM	2900 ± 0.4 nM	900 ± 0.2 nM						
Cc1cc2cccnc2c2ncccc12.N[C@H]1CCCC[C@@H]1N.[Cl][Pt][Cl] [5MESS, [Pt^II(5-methyl-1,10-phenanthroline)(1S,2S-diaminocyclohexane)]Cl2]	220 ± 0.01 nM	61 ± 0.01 nM	320 ± 0.026 nM	33 ± 0.0038 nM	200 ± 0.012 nM		48 ± 0.002 nM	117 ± 0.01 nM	41 ± 0.005 nM	34 ± 0.0023 nM	120 ± 0.025 nM	22 ± 0.0027 nM	270 ± 0.038 nM	204 ± 4 RFU	205 ± 3 RFU	188 ± 3 RFU	30 ± 0.0018 nM	800 fold	
Cc1c(C)c2cccnc2c2ncccc12.N[C@H]1CCCC[C@@H]1N.[Cl][Pt][Cl] [56MESS, [Pt^II(5,6-dimethyl-1,10-phenanthroline)(1S,2S-diaminocyclohexane)]Cl2]	66 ± 0.022 nM	76 ± 0.057 nM	35 ± 0.0064 nM	10 ± 0.0016 nM	93 ± 0.044 nM	~4000 fold	13 ± 0.002 nM	40 nM and 36 nM	21 ± 0.0019 nM	13 ± 0.0022 nM	29 ± 0.001 nM	4.6 ± 0.00039 nM	59 ± 0.0041 nM	240 ± 5 RFU	218 ± 3 RFU	255 ± 4 RFU	16 ± 0.0012 nM	more than 2000 fold	fold more active than CLB ([5]; HT29 colon cell line): ~4000 fold; fold increase in potency compared to CLB ([12]; Du145 prostate cell line): 6000 fold
O=C(O)CCCc1ccc(N(CCCl)CCCl)cc1 [CLB, 4-[bis(2-chloroethyl)amino] phenylbutyric acid, reference compound]														110 ± 3 RFU	190 RFU and 190 ± 5 RFU	204 ± 4 RFU			GI50 ([2]; Homo sapiens, SJ-G2): 11000 nM; GI50 ([3]; Homo sapiens, A2780): 4300 ± 0.4 nM; GI50 ([4]; Homo sapiens): 38000 nM; GI50 ([5]; Homo sapiens, HT-29): 39000 nM; log kw [16]: 1.88; GI50 ([6]; Homo sapiens, MCF7): 11000 nM; GI50 ([7]; Homo sapiens): 40000 nM; GI50 ([8]; Homo sapiens, average over all cell lines tested, read-out: Average GI50 Values): 22000 nM; GI50 ([8]; Homo sapiens, range over the cell lines named in the sentence, read-out: GI50 values ranging (over cell lines)): 4300 to 40000 nM; GI50 ([9]; Homo sapiens, NCI-H460): 11000 nM; GI50 ([15]; Homo sapiens, MCF-10A): 17000 nM; GI50 ([10]; Homo sapiens, Cisplatin-resistant A2780): 16000 nM; GI50 ([11]; Homo sapiens, A-431): 35000 nM; GI50 ([12]; Homo sapiens, DU-145): 27000 nM; GI50 ([13]; Homo sapiens, BE(2)-C): 20000 nM
N.N.O=C([O-])C1(C(=O)[O-])CCC1.[Pt+2] [Carboplatin, cis-diammine(1,1-cyclobutanedicarboxylato) platinum(II), reference compound]	5700 ± 0.2 nM	9200 ± 2.9 nM	> 50000 nM	> 50000 nM	> 50000 nM		> 50000 nM	32200 nM	14000 nM	> 50000 nM	24000 nM	15000 nM	19000 nM				> 50000 nM		
N.N.[Cl][Pt][Cl] [Cisplatin, cis-diamminedichloroplatinum(II), reference compound]	400 ± 0.1 nM	1000 ± 0.1 nM	3800 ± 1.1 nM	11300 nM	6500 ± 0.8 nM	5 fold	7500 ± 1.3 nM	5842 ± 0.61 nM	900 ± 0.2 nM	28000 nM	2400 ± 0.3 nM	1200 ± 0.1 nM	1900 ± 0.2 nM	214 ± 9 RFU	214 ± 9 RFU	200 ± 9 RFU	5200 ± 0.52 nM		
CC(=O)N[C@@H](CS)C(=O)O [NAC, N-acetylcysteine, reference compound]														71 ± 2 RFU	85 ± 6 RFU	91 ± 5 RFU			
N[C@H]1CCCC[C@@H]1N.[Cl][Pt][Cl].c1cnc2c(c1)ccc1cccnc12 [PHENSS, [Pt^II(1,10-phenanthroline)(1S,2S-diaminocyclohexane)]Cl2]	330 ± 0.066 nM	230 ± 0.03 nM	980 ± 0.27 nM	160 ± 0.045 nM	1500 ± 0.5 nM		200 ± 0.057 nM	434 ± 0.11 nM	360 ± 0.035 nM	190 ± 0.047 nM	480 ± 0.17 nM	100 ± 0.038 nM	380 ± 0.046 nM	174 ± 2 RFU	172 ± 9 RFU	176 ± 7 RFU	300 ± 0.058 nM	150 fold	
CC(C)(C)OO [TBHP, tert-butyl hydroperoxide, reference compound]														514 RFU and 514 ± 3 RFU	336 RFU and 336 ± 2 RFU	332 RFU and 332 ± 5 RFU			
